The values below come from US20100292255A1, “Therapeutic Compounds and Their Use in Treating Diseases and Disorders” (Myriad Pharmaceuticals, Inc., priority 2007, published 2010).

This assay deals with T1, purified human Hsp90.
T1 construct: purified human Hsp90 (Stressgen, SPP-770)
Briefly: Hsp90 binding assay: displacement of BODIPY-labeled geldanamycin measured by fluorescence polarization. Particulars: BODIPY-GM 10 nM, Hsp90 30 nM, overnight at room temperature; for IC50: read-out: GM displacement from purified Hsp90 measured by FP IC 50; for GM displacement from purified Hsp90 measured by FP Inhibition by 5 μM compd. (%): 5 μM compound. The procedure, abridged: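 Purified human Hsp90 at 30 nM and 10 nM BODIPY-GM tracer were incubated overnight at room temperature with compound in 2% DMSO. The buffer was 20 mM HEPES-KOH pH 7.3, 50 mM KCl, 5 mM MgCl2, 20 mM Na2MoO4, 2 mM DTT. Background-subtracted mP values read at 485/530 nm were normalized to DMSO wells to give % inhibition.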
(Fluorescence polarisation rises when a labelled molecule tumbles more slowly, as on binding a larger partner.)

Bounds are passed on as bounds.

As for `CCOC(=O)c1cc2c(cc1Sc1nc3c(N)ncnc3n1CCC1CCN(C=O)CC1)OCO2` [Example Compound 171, ethyl 6-({6-amino-9-[2-(1-formylpiperidin-4-yl)ethyl]-9H-purin-8-yl}thio)-1,3-benzodioxole-5-carboxylate], the IC50 amounted to 68 nM.

On to `Nc1ncnc2c1nc(Sc1cc3c(cc1Br)OCCO3)n2CCC1CCN(C(=O)C2CC2(F)F)CC1` (stereo not drawn) [compound 8, 8-[(7-Bromo-2,3-dihydro-1,4-benzodioxin-6-yl)thio]-9-(2-{1-[(2,2-difluorocyclopropyl)carbonyl]piperidin-4-yl}ethyl)-9H-purin-6-amine], for which the IC50 is 90 nM.

On to `C[C@H](NC(=O)CO)C(=O)N1CCC(Cn2c(Sc3cc4c(cc3Br)OCCO4)nc3c(N)ncnc32)CC1` [compound 131, N-{(1S)-2-[4-({6-Amino-8-[(7-bromo-2,3-dihydro-1,4-benzodioxin-6-yl)thio]-9H-purin-9-yl}methyl)piperidin-1-yl]-1-methyl-2-oxoethyl}-2-hydroxyacetamide], for which the IC50 was 1900 nM.

On to `CC(=O)OCC(=O)N1CCC(CCn2c(Sc3cc4occc4cc3Br)nc3c(N)ncnc32)CC1` [Example Compound 194, 2-[4-(2-{6-Amino-8-[(5-bromo-1-benzofuran-6-yl)thio]-9H-purin-9-yl}ethyl)piperidin-1-yl]-2-oxoethyl acetate], for which the IC50 is 150 nM.

`NC(=O)CCC(=O)N1CCC(CCn2c(Sc3cc4c(cc3Br)OCCO4)nc3c(N)ncnc32)CC1` [Example Compound 153, 4-[4-(2-{6-Amino-8-[(7-bromo-2,3-dihydro-1,4-benzodioxin-6-yl)thio]-9H-purin-9-yl}ethyl)piperidin-1-yl]-4-oxobutanamide]: the IC50 was 175 nM.

With `Nc1ncnc2c1nc(Sc1cc3c(cc1Br)OCCO3)n2CCC1CCN(C(=O)CO)CC1` [compound 90, 2-[4-(2-{6-Amino-8-[(7-bromo-2,3-dihydro-1,4-benzodioxin-6-yl)thio]-9H-purin-9-yl}ethyl)piperidin-1-yl]-2-oxoethanol], the IC50 worked out at 90 nM.

As for `CC(=O)N1CCC(CCn2cnc(N)c3nc(Sc4cc5c(cc4[N+](=O)[O-])OCCO5)nc2-3)CC1` [compound 69, 3-[2-(1-Acetylpiperidin-4-yl)ethyl]-8-[(7-nitro-2,3-dihydro-1,4-benzodioxin-6-yl)thio]-3H-purin-6-amine], the “GM displacement from purified Hsp90 measured by FP Inhibition by 5 μM compd. (%)” value turned out to be 46.0%.

For `CC(C)(C)OC(=O)N1CCC(CCn2c(Sc3cc4c(cc3C(F)(F)F)OCC4)nc3c(N)ncnc32)CC1` [Example Compound 192, tert-Butyl 4-[2-(6-amino-8-{[6-(trifluoromethyl)-2,3-dihydro-1-benzofuran-5-yl]thio}-9H-purin-9-yl)ethyl]piperidine-1-carboxylate], the IC50 was above 5000 nM.

Consider `CC(C)C(=O)N1CCC(CCn2c(Sc3cc4c(cc3Br)OCO4)nc3c(N)ncnc32)CC1` [compound 25, 8-[(6-Bromo-1,3-benzodioxol-5-yl)thio]-9-[2-(1-isobutyrylpiperidin-4-yl)ethyl]-9H-purin-6-amine], for which the IC50 amounted to 110 nM.

As for `CC(C)C(=O)N1CCC(CCn2c(Sc3cc4c(cc3Br)OCCO4)nc3c(N)ncnc32)CC1` [compound 23, 8-[(7-Bromo-2,3-dihydro-1,4-benzodioxin-6-yl)thio]-9-[2-(1-isobutyrylpiperidin-4-yl)ethyl]-9H-purin-6-amine], the IC50 came to 195 nM.

As to `Cc1cc(Br)c(Sc2nc3c(N)ncn(CCC4CCN(C(=O)[C@H](C)O)CC4)c-3n2)cc1C` [Example Compound 166, (2S)-1-[4-(2-{6-amino-8-[(2-bromo-4,5-dimethylphenyl)thio]-3H-purin-3-yl}ethyl)piperidin-1-yl]-1-oxopropan-2-ol], the “GM displacement from purified Hsp90 measured by FP Inhibition by 5 μM compd. (%)” value amounted to 75.0%.

With `N#Cc1cc2c(cc1Sc1nc3c(N)ncn(CCn4c(=O)n5n(c4=O)CC=CC5)c-3n1)OCO2` [compound 63], the “GM displacement from purified Hsp90 measured by FP Inhibition by 5 μM compd. (%)” value was determined as 34.0%.
